These results are taken from PubChem BioAssay (NCI).

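Five compound concentrations were applied to cells in 96-well plates for 48 hours; endpoints were derived by simple linear interpolation of the resulting dose-response curve. TGI is the concentration that stops growth completely.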

Some test systems named below: OVCAR-5 ovarian; SK-MEL-28 melanoma; HS 578T breast; ACHN renal; M14 melanoma; SNB-75 CNS; SK-OV-3 ovarian; SW-620 colon; LOX IMVI melanoma; RPMI-8226 leukemia; MDA-MB-435; A498 renal; OVCAR-3 ovarian; SNB-19 CNS; RXF 393 renal; HCT-15 colon.
Common to all, as to assay: NCI-60 cell line screen, 48 h

`CSc1nc[nH]c1C(N)=S`: the TGI with OVCAR-5 ovarian, in the test with SK-MEL-28 melanoma, in the test with HS 578T breast, in the test with ACHN renal, in the test on M14 melanoma and with SNB-75 CNS was more than 100 µM throughout. Besides, the TGI in the test on SK-OV-3 ovarian, with SW-620 colon, in the test with LOX IMVI melanoma, in the test on RPMI-8226 leukemia, with MDA-MB-435 and with A498 renal was more than 100 µM throughout. The TGI in the test with OVCAR-3 ovarian, in the test with SNB-19 CNS and with RXF 393 renal was more than 100 µM in each case.
For the molecule `N#CC(NNC(=O)c1ccccc1O)c1c(O)ccc2ccccc12` (centres undefined), the TGI in the test with OVCAR-5 ovarian was 21.1 µM; in the test on SK-MEL-28 melanoma, more than 100 µM; with HS 578T breast, more than 86.2 µM; in the test on ACHN renal, 22.2 µM; in the test with M14 melanoma, 30 µM; in the test with SNB-75 CNS it was 48.3 µM. Moreover, the TGI in the test on SK-OV-3 ovarian is 40.7 µM; with SW-620 colon it was more than 60.9 µM; with LOX IMVI melanoma, 6.64 µM; in the test on RPMI-8226 leukemia, 43 µM; in the test with MDA-MB-435, 43.4 µM; with A498 renal, more than 66 µM. The TGI in the test on HCT-15 colon is 32.8 µM; in the test on OVCAR-3 ovarian it was 23.8 µM; in the test on SNB-19 CNS it was more than 100 µM; with RXF 393 renal, 29.9 µM.
On to `O=C1c2ccccc2C(=O)c2sc(Nc3cc(Cl)ccc3Cl)nc21`, for which the TGI in the test with OVCAR-5 ovarian is 45.6 µM; in the test on SK-MEL-28 melanoma it was 27.3 µM; in the test on HS 578T breast, more than 72.3 µM; with ACHN renal it was 19 µM; in the test with M14 melanoma, more than 42.6 µM; with SNB-75 CNS, 38.2 µM. In addition, the TGI in the test on SK-OV-3 ovarian is 30.3 µM; in the test on SW-620 colon, more than 22.2 µM; in the test on LOX IMVI melanoma, 5.78 µM; in the test with RPMI-8226 leukemia, 22.6 µM; in the test on MDA-MB-435 it was 3.85 µM; with A498 renal it was 41.9 µM. Moreover, the TGI in the test on HCT-15 colon was 9.48 µM; in the test with OVCAR-3 ovarian, 4.07 µM; in the test on SNB-19 CNS it was 37.9 µM; in the test on RXF 393 renal it was 39.3 µM.
As for `COc1ccc(CC[N+]2(C)COc3cc4oc(=O)cc(C)c4cc3C2)cc1OC` (centres undefined), the TGI with OVCAR-5 ovarian, with SK-MEL-28 melanoma, in the test on HS 578T breast, in the test with ACHN renal, with M14 melanoma and with SNB-75 CNS was more than 100 µM each time. Besides, the TGI with SK-OV-3 ovarian, with SW-620 colon, with LOX IMVI melanoma, with RPMI-8226 leukemia, in the test on MDA-MB-435 and in the test with A498 renal was more than 100 µM each time. Besides, the TGI in the test with HCT-15 colon, in the test with OVCAR-3 ovarian, in the test with SNB-19 CNS and in the test with RXF 393 renal was more than 100 µM throughout.
In the case of `COc1ccc(/C=N/Nc2nnc3c(n2)c2ccccc2c2nn(-c4ccccc4Cl)nc23)cc1`, the TGI in the test on OVCAR-5 ovarian, in the test on SK-MEL-28 melanoma, in the test with HS 578T breast, in the test on ACHN renal, with M14 melanoma and in the test with SNB-75 CNS was more than 100 µM each time. The TGI in the test with SK-OV-3 ovarian, in the test with SW-620 colon, with LOX IMVI melanoma, in the test with RPMI-8226 leukemia, with MDA-MB-435 and with A498 renal was more than 100 µM throughout. The TGI with HCT-15 colon, in the test with OVCAR-3 ovarian, with SNB-19 CNS and with RXF 393 renal was more than 100 µM each time.
For the molecule `CC1CCCN1CCCOC(=O)c1ccc(OC2C=CCCC2)cc1` (centres undefined), the TGI in the test on OVCAR-5 ovarian is more than 100 µM; in the test with SK-MEL-28 melanoma, more than 100 µM; in the test with HS 578T breast, 71.8 µM; with ACHN renal it was more than 100 µM; in the test on M14 melanoma, 31.6 µM; in the test on SNB-75 CNS, 34.6 µM. Further, the TGI in the test with SK-OV-3 ovarian is more than 100 µM; in the test on SW-620 colon, 46.4 µM; with LOX IMVI melanoma it was 36.7 µM; with RPMI-8226 leukemia it was 68.2 µM; in the test with MDA-MB-435 it was more than 100 µM; in the test with A498 renal, more than 100 µM. In addition, the TGI is 53 µM with HCT-15 colon, more than 100 µM with OVCAR-3 ovarian, more than 100 µM with SNB-19 CNS and 52 µM in the test with RXF 393 renal.
On to `CC(C)[C@@H]1NC(=O)[C@@H]2N=C(O[C@H]2C)[C@H](C(C)C)NC(=O)C2N=C1O[C@H]2C`, for which the TGI with OVCAR-5 ovarian, in the test on SK-MEL-28 melanoma, in the test with HS 578T breast, in the test with ACHN renal, with M14 melanoma and in the test with SNB-75 CNS was more than 100 µM throughout. For the same molecule, the TGI in the test with SW-620 colon, in the test with LOX IMVI melanoma, with RPMI-8226 leukemia, in the test on MDA-MB-435, in the test with A498 renal and in the test with HCT-15 colon was more than 100 µM in each case. The TGI in the test with OVCAR-3 ovarian, in the test on SNB-19 CNS and in the test on RXF 393 renal was more than 100 µM throughout.
Consider `CCOC(=O)C1CCC(=O)N1C(=O)c1ccc(Cl)cc1` (centres undefined), for which the TGI with OVCAR-5 ovarian, in the test with SK-MEL-28 melanoma, with HS 578T breast, with ACHN renal, in the test with M14 melanoma and in the test with SNB-75 CNS was more than 100 µM in each case. Also, the TGI in the test on SW-620 colon, in the test with LOX IMVI melanoma, with RPMI-8226 leukemia, with MDA-MB-435, in the test on A498 renal and with HCT-15 colon was more than 100 µM throughout. For the same molecule, the TGI in the test on OVCAR-3 ovarian, in the test on SNB-19 CNS and with RXF 393 renal was more than 100 µM each time.
As to `CN(/N=C\c1ccc2ccccc2c1)C1=NCCCN1`, the TGI with OVCAR-5 ovarian was more than 100 µM; in the test with SK-MEL-28 melanoma, 29.8 µM; in the test on HS 578T breast, 42.1 µM; with ACHN renal, 35.9 µM; in the test with SNB-75 CNS it was 91.2 µM; in the test on SK-OV-3 ovarian it was 98.3 µM. The TGI is 27.2 µM in the test with SW-620 colon; 21.6 µM in the test on LOX IMVI melanoma; 50.7 µM in the test on RPMI-8226 leukemia; 30.8 µM in the test on MDA-MB-435; 28.8 µM in the test with A498 renal; 74.4 µM with HCT-15 colon. Also, the TGI in the test with OVCAR-3 ovarian worked out at 54.1 µM; with RXF 393 renal, 35.4 µM.
